Assay results: patent US11814368B2, “Triazine derivatives having virus replication inhibitory activity and pharmaceutical composition comprising the same” (priority 2021, dated 2023)

Tested on: SARS-CoV-2
Experiment: microbe, parasite or virus in culture
Format: cell-based
Conditions: for EC50: Severe acute respiratory syndrome coronavirus 2, 72 h, read-out: 50% SARS-CoV-2 infected cell death inhibitory concentration (EC50), VeroE6/TMPRSS2 cells, SARS-CoV-2, 3 days culture, CellTiter-Glo 2.0; for coronavirus replication inhibitory activity: at concentrations up to 50 µM

| SMILES | EC50 [µM] | coronavirus replication inhibitory activity |
| --- | --- | --- |
| Cc1nc2ccc(/N=c3\[nH]c(=O)n(C[C@H]4COC(C)(C)O4)c(=O)n3Cc3ccc(Cl)cc3)cc2s1 [Patent Document 1 Compound 1-1603] | > 50 | did not show coronavirus replication inhibitory activity |
| COc1ncccc1Cn1c(=O)[nH]/c(=N\c2ccc(OC(C)C)c(F)c2)n(Cc2ccc(Cl)cc2)c1=O [Patent Document 1 Compound I-0683] | > 50 | did not show coronavirus replication inhibitory activity |
| O=C(O)c1ccc(Oc2ccc(/N=c3\[nH]c(=O)n(-c4ccon4)c(=O)n3Cc3ccc(Cl)cc3)cc2)nc1 [Patent Document 2 Compound I-580] | > 50 | did not show coronavirus replication inhibitory activity |
| CC(C)Oc1ccc(/N=c2\[nH]c(=O)n(Cc3ccc[nH]c3=O)c(=O)n2Cc2ccc(Cl)cc2)cc1F [Patent Document 1 Compound I-0685] | > 50 | did not show coronavirus replication inhibitory activity |
| Cc1ccc(Cn2c(=O)nc(Nc3cccc(C(F)(F)F)c3)n(Cc3ccc(Cl)c(Cl)c3)c2=O)cc1 [Patent Document 3 Compound 1-066] | > 50 | did not show coronavirus replication inhibitory activity |
| CC(C)Oc1ccc(/N=c2\[nH]c(=O)n(Cc3ncn[nH]3)c(=O)n2Cc2ccc(Cl)cc2)cc1F [Patent Document 1 Compound I-0679] | > 50 | did not show coronavirus replication inhibitory activity |
| O=C(O)c1ccc(Oc2ccc(/N=c3\[nH]c(=O)n(-c4cccs4)c(=O)n3Cc3ccc(Cl)cc3)cc2)nc1 [Patent Document 2 Compound I-575] | > 50 | did not show coronavirus replication inhibitory activity |
